What was measured:
PKC-beta = molecular target: T1, PKC-beta (Homo sapiens, UniProt P05771); experiment: Protein Kinase C assay (fluorescence polarization), PKC-beta; type: biochemical
T1 construct: purchased Oxford Biomedical Research
Method: (§1) The inhibition of PKC activity was measured by monitoring the production of phosphorylated peptide by fluorescence polarization at different concentrations of the inhibitor. Reactions were carried out in 96-well plate format with a total volume of 20 μL containing 20 mM HEPES, pH 7.4, 5 mM MgCl2, 0.2 mM CaCl2, 1 mM DTT, 0.02% Brij-35, 0.1 mg/mL phosphatidylserine, 0.02 mg/mL dioleoyl-sn-glycerol and 5 μM each of ATP and the peptide substrate. Compounds were first diluted serially in DMSO and then transferred to a solution containing the above concentrations of HEPES, MgCl2, CaCl2, DTT, and Brij-35 to yield 5× compound solutions in 2% DMSO, which was then added to the reaction solution. Reactions were initiated by the addition of PKC at a typical concentration as described in the table below, and then allowed to incubate at room temperature for 20 minutes. At the end of this time, a combination of quench (EDTA) and detection (peptide tracer and antibody) reagents was added using the protocol of Invitrogen P2748 (Carlsbad, Calif.), a Protein Kinase C Fluorescence polarization Assay Kit. After a 30 minute period of incubation, the amount of phosphorylated peptide generated was measured by fluorescence polarization (Ex=485 nm, Em=535 nm) using a Tecan Polarian instrument (Switzerland).
Human recombinant PKC β1 is obtained from Oxford Biomedical Research and is used under the assay conditions as described under Section A.1 above.
(§2) Several subject compounds were tested according to procedures in the “Characterization of Functional Properties” section. PKC kinase activity was measured using the procedure Section A.1 (Protein Kinase C assay) with the appropriate isoform. The whole cell assay was run according to the procedure in Section A.2 (IL-2 ELISA, Human primary T cell, anti-CD3+CD28+ Assays). […] Blank entries indicate that the IC50 was not determined.

PKC-epsilon = molecular target: T2, PKC-epsilon (Homo sapiens, UniProt Q02156); experiment: Protein Kinase C assay (fluorescence polarization), PKC-epsilon; type: biochemical
T2 construct: purchased Upstate Biotechnologies, Temecula, CA 14-518
T2 sequence (Q02156 1-737): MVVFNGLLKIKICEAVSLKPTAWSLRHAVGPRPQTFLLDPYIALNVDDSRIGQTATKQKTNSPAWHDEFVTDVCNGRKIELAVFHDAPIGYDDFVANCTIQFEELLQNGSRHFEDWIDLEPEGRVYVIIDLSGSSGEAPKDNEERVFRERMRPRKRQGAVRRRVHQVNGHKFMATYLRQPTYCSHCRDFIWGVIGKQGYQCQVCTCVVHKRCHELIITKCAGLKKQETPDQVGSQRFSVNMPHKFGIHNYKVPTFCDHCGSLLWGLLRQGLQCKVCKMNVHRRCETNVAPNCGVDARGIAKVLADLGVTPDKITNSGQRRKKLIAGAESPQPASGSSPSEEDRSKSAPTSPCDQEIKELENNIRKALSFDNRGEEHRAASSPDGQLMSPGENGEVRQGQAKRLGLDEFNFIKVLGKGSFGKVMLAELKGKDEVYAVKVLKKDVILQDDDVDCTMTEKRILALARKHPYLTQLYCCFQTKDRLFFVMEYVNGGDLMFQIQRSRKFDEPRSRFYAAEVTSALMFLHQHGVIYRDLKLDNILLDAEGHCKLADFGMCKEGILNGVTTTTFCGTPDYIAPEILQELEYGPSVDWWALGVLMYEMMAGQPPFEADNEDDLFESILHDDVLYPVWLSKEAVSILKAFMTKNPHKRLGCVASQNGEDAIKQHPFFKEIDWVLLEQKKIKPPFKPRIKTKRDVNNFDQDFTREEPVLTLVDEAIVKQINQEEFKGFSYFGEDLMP
Method: as §1
Human recombinant PKC […] is obtained from Oxford Biomedical Research and is used under the assay conditions as described under Section A.1 above.
as §2

PKC-theta = molecular target: T3, PKC-theta (Homo sapiens, UniProt Q04759); experiment: Protein Kinase C assay (fluorescence polarization), PKC-theta; type: biochemical
T3 construct: purchased Upstate Biotechnologies, Temecula, CA 14-444
T3 sequence (Q04759 whole entry): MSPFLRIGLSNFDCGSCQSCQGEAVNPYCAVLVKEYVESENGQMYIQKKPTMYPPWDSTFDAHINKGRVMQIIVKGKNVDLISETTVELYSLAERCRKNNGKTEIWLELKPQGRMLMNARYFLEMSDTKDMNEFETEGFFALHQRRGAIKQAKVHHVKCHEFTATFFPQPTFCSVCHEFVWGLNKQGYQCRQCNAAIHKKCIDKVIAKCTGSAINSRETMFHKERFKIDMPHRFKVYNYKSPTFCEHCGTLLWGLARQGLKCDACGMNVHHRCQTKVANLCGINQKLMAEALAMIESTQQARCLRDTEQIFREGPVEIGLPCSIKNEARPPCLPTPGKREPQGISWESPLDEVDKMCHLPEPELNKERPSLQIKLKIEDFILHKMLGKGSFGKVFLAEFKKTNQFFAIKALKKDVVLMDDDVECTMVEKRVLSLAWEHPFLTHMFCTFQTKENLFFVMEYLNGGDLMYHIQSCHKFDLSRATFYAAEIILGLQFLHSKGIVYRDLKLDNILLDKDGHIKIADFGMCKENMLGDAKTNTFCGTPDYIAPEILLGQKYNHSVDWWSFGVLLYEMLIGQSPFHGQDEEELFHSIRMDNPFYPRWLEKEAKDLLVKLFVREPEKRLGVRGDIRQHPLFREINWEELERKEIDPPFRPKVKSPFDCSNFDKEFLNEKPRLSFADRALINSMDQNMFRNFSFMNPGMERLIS
Method: as §1
Human recombinant PKC θ is used under the assay conditions as described above.
as §2

PKC-delta = molecular target: T4, PKC-delta (Homo sapiens, UniProt Q05655); experiment: Protein Kinase C assay (fluorescence polarization), PKC-delta; type: biochemical
T4 construct: purchased Oxford Biomedical Research
T4 sequence (Q05655 whole entry): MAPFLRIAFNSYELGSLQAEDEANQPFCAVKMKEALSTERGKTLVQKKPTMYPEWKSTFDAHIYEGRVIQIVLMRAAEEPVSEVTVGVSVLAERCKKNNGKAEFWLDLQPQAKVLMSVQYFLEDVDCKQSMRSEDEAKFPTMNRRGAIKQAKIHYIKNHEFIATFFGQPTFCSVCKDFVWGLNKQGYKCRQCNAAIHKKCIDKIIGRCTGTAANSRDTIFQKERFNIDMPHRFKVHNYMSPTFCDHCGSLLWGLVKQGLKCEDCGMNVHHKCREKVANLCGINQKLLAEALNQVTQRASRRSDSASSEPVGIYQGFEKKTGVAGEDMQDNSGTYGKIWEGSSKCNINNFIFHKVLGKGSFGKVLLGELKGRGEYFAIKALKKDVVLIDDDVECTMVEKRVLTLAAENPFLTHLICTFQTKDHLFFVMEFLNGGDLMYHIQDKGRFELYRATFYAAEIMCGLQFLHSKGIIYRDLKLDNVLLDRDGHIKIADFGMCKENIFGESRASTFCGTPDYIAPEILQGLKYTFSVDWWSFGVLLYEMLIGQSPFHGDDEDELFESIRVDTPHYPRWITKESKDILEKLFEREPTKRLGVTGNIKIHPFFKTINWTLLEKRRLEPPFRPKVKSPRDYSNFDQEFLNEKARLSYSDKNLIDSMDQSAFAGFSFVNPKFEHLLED
Method: as §1
Human recombinant PKC δ is obtained from Oxford Biomedical Research and is used under the assay conditions as described under Section A.1 above.
as §2

PKC-alpha = molecular target: T5, PKC-alpha (Homo sapiens, UniProt P17252); experiment: Protein Kinase C assay (fluorescence polarization), PKC-alpha; type: biochemical
T5 construct: purchased Oxford Biomedical Research
Method: as §1
Human recombinant PKC α is obtained from Oxford Biomedical Research and is used under the assay conditions as described under Section A.1 above.
as §2

Human primary T cell = experiment: IL-2 ELISA, human primary T cell, anti-CD3+CD28+ whole cell assay; type: cell-based; settings: IL-2 by ELISA, human primary T cells stimulated with anti-CD3+CD28
Method: 2. IL-2 ELISA, Human Primary T Cell, Anti-CD3+CD28+ Assays
Human primary T cells were prepared as follows. Whole blood was obtained from a healthy volunteer, mixed 1:1 with PBS, layered on to Ficoll Hypaque (Amersham Pharmacia Biotech, Piscataway, N.J., Catalog #17-1440-03) in 2:1 blood/PBS:ficoll ratio and centrifuged for 30 minutes at 4° C. at 1750 rpm. The cells at the serum:ficoll interface were recovered and washed twice with 5 volumes of PBS. These freshly isolated human peripheral blood mononuclear cells were cultured in Yssel's medium containing 40 U/mL IL2 in a flask pre-coated with 1 μg/mL αCD3 and 5 μg/mL αCD28 (Anti-Human CD3, BD Pharmingen Catalog #555336, Anti-Human CD28, Beckman Coulter Catalog #1M1376). The cells were stimulated for 3-4 days, then transferred to a fresh flask and maintained in RPMI (RPMI-1640 with L-Glutamine; Mediatech, Inc., Herndon Va., cat. #10-040-CM) with 10% FBS and 40 U/mL IL-2. The primary T-cells were then washed twice with PBS to remove the IL-2.
Human primary T cells (100,000 cells per well) were pre-incubated with or without test compound in Yssel's medium for 1 hr at 37° C. Cells were then stimulated by transferring them to round-bottom 96-well plates pre-coated with 1 μg/ml αCD3 and 5 μg/ml αCD28. For counter assay, cells were instead stimulated by adding 8× stock solutions of PMA and ionomycin in Yssels (for final concentrations of 0.5 ng/ml PMA and 0.1 μM ionomycin, both from Calbiochem). Cells were incubated at 37° C. for 24 hours before 100 μL supernatants were harvested for quantification of IL-2 by ELISA using Human IL-2 Duoset ELISA Kit from R and D Systems, Cat. # DY202E.
as §2

T1 sequence (P05771 whole entry): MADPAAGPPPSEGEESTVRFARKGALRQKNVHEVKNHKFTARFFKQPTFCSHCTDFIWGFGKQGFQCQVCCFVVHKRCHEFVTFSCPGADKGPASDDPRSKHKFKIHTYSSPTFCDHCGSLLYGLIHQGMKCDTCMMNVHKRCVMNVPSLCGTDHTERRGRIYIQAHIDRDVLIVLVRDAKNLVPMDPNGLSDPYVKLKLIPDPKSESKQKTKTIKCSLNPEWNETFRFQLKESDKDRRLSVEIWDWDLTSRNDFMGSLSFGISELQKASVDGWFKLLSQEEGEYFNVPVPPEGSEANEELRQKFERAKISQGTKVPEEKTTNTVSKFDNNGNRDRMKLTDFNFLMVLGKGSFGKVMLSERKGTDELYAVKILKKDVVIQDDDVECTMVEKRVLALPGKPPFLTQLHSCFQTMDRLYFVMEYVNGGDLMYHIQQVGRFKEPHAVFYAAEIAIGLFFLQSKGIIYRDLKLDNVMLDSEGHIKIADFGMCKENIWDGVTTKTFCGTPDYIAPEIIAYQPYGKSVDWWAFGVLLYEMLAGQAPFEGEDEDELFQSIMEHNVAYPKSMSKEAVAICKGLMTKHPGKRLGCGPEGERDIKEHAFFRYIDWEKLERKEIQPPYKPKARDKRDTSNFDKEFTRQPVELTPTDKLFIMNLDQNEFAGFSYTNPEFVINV

| Compound | IC50 (PKC-beta) [nM] | IC50 (PKC-epsilon) [nM] | IC50 (PKC-theta) [nM] | IC50 (PKC-delta) [nM] | IC50 (PKC-alpha) [nM] | IC50 (Human primary T cell; T-cell) [nM] | IC50 (Human primary T cell) [nM] |
| --- | --- | --- | --- | --- | --- | --- | --- |
| CN1C(C)(C)CC(Nc2nc(Nc3ccc4c(c3)-n3nnnc3CO4)ncc2F)CC1(C)C [Compound 1-2, N2-(4H-benzo[b]tetrazolo[1,5-d][1,4]oxazin-8-yl)-5-fluoro-N4-(1,2,2,6,6-pentamethylpiperidin-4-yl)pyrimidine-2,4-diamine] | < 250 | < 250 | < 250 | < 250 | < 250 | < 250 | – |
| CC1(C)CC(Nc2nc(Nc3ccc4c(c3)-n3nnnc3C(F)(F)O4)ncc2F)CC(C)(C)N1 [Compound 1-5, N2-(4,4-difluoro-4H-benzo[b]tetrazolo[1,5-d][1,4]oxazin-8-yl)-5-fluoro-N4-(2,2,6,6-tetramethylpiperidin-4-yl)pyrimidine-2,4-diamine] | < 250 | < 250 | < 250 | < 250 | < 250 | 500 to 1000 | – |
| CC1(C)CC(Nc2nc(Nc3ccc4c(c3)-c3nnnn3C(C)(C)O4)ncc2F)CC(C)(C)N1 [Compound 1-9, N2-(5,5-dimethyl-5H-benzo[e]tetrazolo[1,5-c][1,3]oxazin-9-yl)-5-fluoro-N4-(2,2,6,6-tetramethylpiperidin-4-yl)pyrimidine-2,4-diamine] | – | – | – | – | – | 500 to 1000 | – |
| CC1(C)CC(Nc2nc(Nc3ccc4c(c3)-n3nnnc3C3(CCC3)O4)ncc2F)CC(C)(C)N1 [Compound 1-11, N2-{2,1-Spiro-butane-4H-tetrazolo[5,1-c][1,4]benzoxazin-8-yl}-5-fluoro-N4-(2,2,6,6-tetramethylpiperidin-4-yl)-2,4-pyrimidinediamine] | < 250 | < 250 | < 250 | < 250 | < 250 | < 250 | – |
| CN1C(C)(C)CC(Nc2nc(Nc3ccc4c(c3)-n3nnnc3C3(CCC3)O4)ncc2F)CC1(C)C [Compound 1-12, N2-{2,1-Spiro-butane-4H-tetrazolo[5,1-c][1,4]benzoxazin-8-yl}-5-fluoro-N4-(1,2,2,6,6-pentamethylpiperidin-4-yl)-2,4-pyrimidinediamine] | < 250 | < 250 | < 250 | < 250 | < 250 | – | < 250 |
| CC1Oc2ccc(Nc3ncc(F)c(NC4CC(C)(C)N(C)C(C)(C)C4)n3)cc2-n2nnnc21 (stereo not shown) [Compound 1-18] | < 250 | < 250 | < 250 | < 250 | < 250 | < 250 | – |
| CC1(C)CC(CNc2nc(Nc3ccc4c(c3)-n3nnnc3CO4)ncc2F)C(C)(C)N1 (stereo not shown) [Compound 2-1, N2-(4H-benzo[b]tetrazolo[1,5-d][1,4]oxazin-8-yl)-5-fluoro-N4-((2,2,5,5-tetramethylpyrrolidin-3-yl)methyl)pyrimidine-2,4-diamine] | < 250 | < 250 | < 250 | < 250 | < 250 | < 250 | – |
| N2-(4H-benzo[b]pyrrolo[1,2-d][1,4]oxazin-8-yl)-5-fluoro-N4-(1,2,2,6,6-pentamethylpiperidin-4-yl)pyrimidine-2,4-diamine [Compound 1-4] | – | – | – | – | – | – | 1000 to 5000 |
| N2-(4H-benzo[b]pyrrolo[1,2-d][1,4]oxazin-8-yl)-5-fluoro-N4-(2,2,6,6-tetramethylpiperidin-4-yl)pyrimidine-2,4-diamine [Compound 1-3] | – | – | – | – | – | – | 1000 to 5000 |

Continued, in another order:

| IC50 (PKC-beta) [nM] | IC50 (PKC-epsilon) [nM] | IC50 (PKC-theta) [nM] | IC50 (PKC-delta) [nM] | IC50 (PKC-alpha) [nM] | IC50 (Human primary T cell; T-cell) [nM] | Compound | IC50 (Human primary T cell) [nM] |
| --- | --- | --- | --- | --- | --- | --- | --- |
| < 250 | < 250 | < 250 | < 250 | < 250 | < 250 | CC1(C)CC(Nc2nc(Nc3ccc4c(c3)-n3nnnc3CO4)ncc2F)CC(C)(C)N1 [Compound 1-1, N2-(4H-benzo[b]tetrazolo[1,5-d][1,4]oxazin-8-yl)-5-fluoro-N4-(2,2,6,6-tetramethylpiperidin-4-yl)pyrimidine-2,4-diamine] | – |
| < 250 | < 250 | < 250 | < 250 | < 250 | 250 to 500 | CN1C(C)(C)CC(Nc2nc(Nc3ccc4c(c3)-n3nnnc3C(F)(F)O4)ncc2F)CC1(C)C [Compound 1-6, N2-(4,4-difluoro-4H-benzo[b]tetrazolo[1,5-d][1,4]oxazin-8-yl)-5-fluoro-N4-(1,2,2,6,6-pentamethylpiperidin-4-yl)pyrimidine-2,4-diamine] | – |
| < 250 | < 250 | < 250 | < 250 | < 250 | < 250 | CC1(C)CC(Nc2nc(Nc3ccc4c(c3)-n3nnnc3C(C)(C)O4)ncc2F)CC(C)(C)N1 [Compound 1-7, N2-(4,4-dimethyl-4H-benzo[b]tetrazolo[1,5-d][1,4]oxazin-8-yl)-5-fluoro-N4-(2,2,6,6-tetramethylpiperidin-4-yl)pyrimidine-2,4-diamine] | – |
| < 250 | < 250 | < 250 | < 250 | < 250 | < 250 | CN1C(C)(C)CC(Nc2nc(Nc3ccc4c(c3)-n3nnnc3C(C)(C)O4)ncc2F)CC1(C)C [Compound 1-8, N2-(4,4-dimethyl-4H-benzo[b]tetrazolo[1,5-d][1,4]oxazin-8-yl)-5-fluoro-N4-(1,2,2,6,6-pentamethylpiperidin-4-yl)pyrimidine-2,4-diamine] | – |
| – | – | – | – | – | < 250 | CN1C(C)(C)CC(Nc2nc(Nc3ccc4c(c3)-c3nnnn3C(C)(C)O4)ncc2F)CC1(C)C [Compound 1-10, N2-(5,5-dimethyl-5H-benzo[e]tetrazolo[1,5-c][1,3]oxazin-9-yl)-5-fluoro-N4-(1,2,2,6,6-pentamethylpiperidin-4-yl)pyrimidine-2,4-diamine] | – |
| < 250 | < 250 | < 250 | < 250 | < 250 | < 250 | CC1Oc2ccc(Nc3ncc(F)c(NC4CC(C)(C)NC(C)(C)C4)n3)cc2-n2nnnc21 (stereo not shown) [Compound 1-17] | – |

From patent publication US9453028B2, “Protein kinase C inhibitors and uses thereof” (Rigel Pharmaceuticals, Inc., priority 2009, dated 2016)
